Test results: patent publication US8003668B2, “Amino-substituted 8-N-benzimidazoles and methods for their use in blood sugar disorders” (Sanofi-Aventis, priority 2005, dated 2011)

Target: T1, DPP-IV from porcine kidneys (Sus scrofa, UniProt P22411)
T1 construct: DPP-IV from porcine kidneys (Sigma, Munich); purchased Sigma, Munich; host or cells: porcine kidney (tissue-derived enzyme)
Assay: Measurement of the DPP-IV activity (fluorimetric, H-Ala-Pro-AFC substrate)
Assay type: biochemical
Settings: inhibitor at 30 μm; H-Ala-Pro-AFC 15 μm; DPP-IV 1 mU/ml; Tris/HCl pH 7.4; room temperature
Description: The efficacy of the compounds was tested as follows: • Measurement of the DPP-IV Activity: • Material: • DPP-IV from porcine kidneys (Sigma, Munich) • H-Ala-Pro-AFC (Bachem, Weil am Rhein) • Test conditions: • DPP-IV (1 mU/ml, end concentration) • H-Ala-Pro-AFC (15 μm end concentration) in Tris/HCl (40 mM, pH 7.4), total volume 0.2 ml
The reaction was performed at room temperature for different periods (typically 10 minutes) and stopped at the end of the reaction by adding 20 μl of ZnCl2 (1 M). The conversion of H-Ala-Pro-AFC was determined fluorimetrically by measuring the emission at 535 nm on excitation at 405 nm. In the case of addition of inhibitors, the buffer volume added was adjusted such that a total volume of the test mixture of 200 μl was maintained.
% inhibition at a fixed concentration was calculated as follows: (1−enzyme activityinhibited reaction/enzyme activityuninhibited reaction)×100
IC50 values for inhibitors were determined by varying the inhibitor concentrations at the given substrate concentration of 15 μM. Ki and Km values were determined by corresponding variation of substrate and inhibitor concentration as described (Dixon, M. and Webb, E.C.(1979) Enzymes, third edition, pp. 47-206, Academic Press). […]

T1 sequence (P22411 whole entry): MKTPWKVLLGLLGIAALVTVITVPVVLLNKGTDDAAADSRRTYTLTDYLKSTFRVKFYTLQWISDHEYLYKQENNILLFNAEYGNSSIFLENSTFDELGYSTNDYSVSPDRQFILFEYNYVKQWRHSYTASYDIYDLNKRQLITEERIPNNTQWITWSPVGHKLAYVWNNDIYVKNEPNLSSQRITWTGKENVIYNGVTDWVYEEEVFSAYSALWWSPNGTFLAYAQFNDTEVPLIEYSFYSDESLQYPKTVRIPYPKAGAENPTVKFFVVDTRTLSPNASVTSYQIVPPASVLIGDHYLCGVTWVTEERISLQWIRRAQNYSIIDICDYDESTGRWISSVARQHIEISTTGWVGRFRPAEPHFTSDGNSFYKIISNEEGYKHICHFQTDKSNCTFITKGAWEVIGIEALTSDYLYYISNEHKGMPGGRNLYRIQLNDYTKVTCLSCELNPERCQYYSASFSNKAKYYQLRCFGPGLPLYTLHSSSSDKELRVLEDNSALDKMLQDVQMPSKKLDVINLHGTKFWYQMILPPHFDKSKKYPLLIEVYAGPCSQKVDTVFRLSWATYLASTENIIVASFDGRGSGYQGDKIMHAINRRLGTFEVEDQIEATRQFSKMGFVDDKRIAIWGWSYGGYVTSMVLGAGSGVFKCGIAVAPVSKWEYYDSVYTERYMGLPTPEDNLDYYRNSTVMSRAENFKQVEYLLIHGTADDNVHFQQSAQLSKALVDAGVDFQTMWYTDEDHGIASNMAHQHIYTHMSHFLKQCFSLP

CC(C)=CCn1c(N2CCC[C@@H](N)C2)nc2ccc(NS(=O)(=O)c3ccccc3)cc21.O=C(O)C(F)(F)F [Example 1, R-N-[2-(3-R-Aminopiperidin-1-yl)-1-(3-methylbut-2-enyl)-1H-benzimidazol-6-yl]-benzenesulfonamide trifluoroacetic acid salt]
% inhibition at 30 μm: 56%
